Results on 16 compounds are retold here after US10696688B2, “Fused pyrimidines as isoform selective phosphoinositide-3-kinase-alpha inhibitors and process for preparation thereof” (Council of Scientific and Industrial Research, priority 2015, dated 2020).

Structures are written as SMILES. pIC50: −log10 of the molar value. In brackets after ≈: the same amount, converted by molar mass. Several values for one entry are separate records, joined by “and”; a condition that tells them apart may be missing. Equal values may be shown once. Read-outs that look alike come from different tables or passages of the source. Some results are limits rather than exact numbers.

Data set [1] can be described thus: Thermodynamic aqueous solubility, 96-well plate protocol. The class given is physicochemical. Conditions: for solubility: 25 °C, pH 7, water, thermodynamic from solid. Here is the method: The thermodyanamic aqueous solubility was determined using 96-plate plate protocol (Bharate, S. S. and Vishwakarma, R. A. 2015, Bioorg. Med. Chem. Lett. 25, 1561-1567). […] Briefly, the compounds were loaded into 96-well plate in the form of methanolic solution, followed by evaporation of solvent to get 1, 2, 4, 8, 16, 25, 40, 80, 160 and 300 μg of compound in solid form in wells. Thereafter, 200 μl of dissolution medium was added to the wells and plates were shaken horizontally at 300 rpm for 4 h at room temperature (25±1° C.). The plates were covered with aluminium foil and were kept overnight at room temperature for equilibration. Later, the plates were centrifuged at 3000 rpm for 15 min (Jouan centrifuge BR4i). Supernatant (50 μl) was withdrawn into UV 96-well plates (Corning® 96 Well Clear Hat Bottom UV-Transparent Microplate) for analyses with microplate reader (Molecular Devices, USA) at corresponding λmax of the sample. The analysis was performed in triplicate for each compound. The solubility curve of concentration (μg/mL) vs absorbance was plotted to find out saturation point and the corresponding concentration was noted.

Data set [2] has as its target PI3K-alpha (Homo sapiens, UniProt P42336). As to the kind of experiment: PI3K-α assay (ADP-Glo). It is filed as biochemical. The note with it: for inhibition at 0.5 µM / % PI3Kα inhibition at 500 nM: at 500 nM (0.5 μM), NI = no inhibition at tested concentration; for inhibition at 0.5 µM: read-out: % PI3Kα inhibition at 500 nM; for % PI3Kα inhibition at 500 nM: 0.5 µM; for pIC50: read-out: IC50 for PI3Kα. Here is the method:
Compounds proposed in present invention were evaluated for their inhibitory activity on phosphoinositide-3-kinase-α and other isoforms (β, γ and δ). The preliminary screening was performed at 0.5 μM. The protocols used for these bioassays are as follows:
PI3K-alpha (diluted in 12.5 mM Glycine-NaOH (pH 8.5), 50 mM KCl, 2.5 mM MgCl2, 1 mM DTT, 0.05% CHAPS) is assayed in total volume of 20 μl containing 12.5 mM glycine-NaOH (pH 8.5), 50 mM KCl, 2.5 mM MgCl2, 1 mM DTT, 0.05% CHAPS, 0.01 mM ATP and 0.05 mM diC8 PIP2. The enzyme is assayed for 80 min after which 20 μl of ADP-Glo reagent is added. After a further incubation of 40 min, 40 μl of Kinase Detection Buffer is added. The assays are incubated for 40 min and then read on PerkinElmer Envision for 1 sec/well.
(ADP-Glo first removes unused ATP, then detects ADP through luciferase.)

The test system of data set [3] is MDA-MB-231 (breast cancer). Put plainly: Cytotoxicity, MTT assay. It is filed as cell-based. Conditions: Homo sapiens, 48 h treatment. Here is the method: (§1) Selected compounds proposed in the present invention were evaluated for their cytotoxic effect against panel of 3 cancer cell line viz. MIAPaCa-2 (pancreatic cancer), A-549 (lung cancer), and MDA-MB-231 (breast cancer) using MTT assay. In each well of a 96-well plate, 3×10^3 cells were grown in 100 μL of medium. After 24 h, each test molecules were added to achieve a final concentration of 10 to 0.01 μmol/L, respectively. After 48 h of treatment, 20 μL of 2.5 mg/mL MTT (Organics Research, Inc.) solution in phosphate buffer saline was added to each well. […], supernatant was removed and formazan crystals were dissolved in 200 μL of DMSO. Absorbance was then measured at 570 nm using an absorbance plate reader (Bio-Rad Microplate Reader). Data are expressed as the percentage of viable cells in treated relative to non-treated conditions. Each experiment was repeated thrice and data was expressed as mean±SD of three independent experiments (Mordant, P. et al., Mol. Cancer Ther. 2010, 9, 358).
A general note: Tetrazolium dyes change colour on reduction, which living cells bring about.

Data set [4] has as its system MIAPaCa-2 (pancreatic cancer). As to the kind of experiment: Cytotoxicity, MTT assay. It is filed as cell-based. Conditions: Homo sapiens, MIA PaCa-2, 48 h treatment. Here is the method:
as §1

Data set [5] has as its system A-549 (lung cancer). Put plainly: Cytotoxicity, MTT assay. It is filed as cell-based. The note with it: Homo sapiens, A549, 48 h treatment. The protocol: as §1
In data set [6] the target is PI3K-beta (Homo sapiens, UniProt P42338). As to the kind of experiment: PI3K-β assay (ADP-Glo). It is filed as biochemical.
Chain of PI3K-beta (P42338 whole entry): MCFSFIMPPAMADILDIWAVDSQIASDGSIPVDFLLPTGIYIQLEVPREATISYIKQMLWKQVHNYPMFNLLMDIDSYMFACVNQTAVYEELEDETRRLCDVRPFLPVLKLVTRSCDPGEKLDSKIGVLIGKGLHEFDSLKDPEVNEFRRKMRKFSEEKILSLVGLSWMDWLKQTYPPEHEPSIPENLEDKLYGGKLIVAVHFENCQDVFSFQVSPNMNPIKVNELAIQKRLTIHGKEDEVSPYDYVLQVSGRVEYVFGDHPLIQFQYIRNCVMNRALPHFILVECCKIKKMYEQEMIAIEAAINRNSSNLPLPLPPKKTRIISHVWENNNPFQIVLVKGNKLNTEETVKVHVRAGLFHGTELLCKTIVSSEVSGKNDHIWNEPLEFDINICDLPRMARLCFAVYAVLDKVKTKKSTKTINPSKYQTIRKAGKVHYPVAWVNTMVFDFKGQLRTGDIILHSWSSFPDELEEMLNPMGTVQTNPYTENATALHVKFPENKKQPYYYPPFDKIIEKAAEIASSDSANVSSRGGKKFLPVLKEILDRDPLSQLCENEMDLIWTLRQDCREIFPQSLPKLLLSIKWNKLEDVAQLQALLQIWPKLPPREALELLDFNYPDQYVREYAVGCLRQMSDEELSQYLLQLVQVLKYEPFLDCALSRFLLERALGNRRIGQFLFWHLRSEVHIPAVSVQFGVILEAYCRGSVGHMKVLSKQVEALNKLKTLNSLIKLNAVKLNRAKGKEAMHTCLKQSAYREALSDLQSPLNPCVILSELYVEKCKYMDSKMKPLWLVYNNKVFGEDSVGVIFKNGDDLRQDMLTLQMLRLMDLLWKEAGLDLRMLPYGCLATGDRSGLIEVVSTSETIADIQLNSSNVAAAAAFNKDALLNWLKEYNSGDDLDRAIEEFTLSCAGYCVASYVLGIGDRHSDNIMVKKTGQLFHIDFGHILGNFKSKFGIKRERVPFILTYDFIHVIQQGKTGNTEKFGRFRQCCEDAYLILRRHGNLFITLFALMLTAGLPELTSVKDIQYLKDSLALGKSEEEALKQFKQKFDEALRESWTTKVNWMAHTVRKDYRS
Chain of PI3K-beta (P27986 whole entry partner): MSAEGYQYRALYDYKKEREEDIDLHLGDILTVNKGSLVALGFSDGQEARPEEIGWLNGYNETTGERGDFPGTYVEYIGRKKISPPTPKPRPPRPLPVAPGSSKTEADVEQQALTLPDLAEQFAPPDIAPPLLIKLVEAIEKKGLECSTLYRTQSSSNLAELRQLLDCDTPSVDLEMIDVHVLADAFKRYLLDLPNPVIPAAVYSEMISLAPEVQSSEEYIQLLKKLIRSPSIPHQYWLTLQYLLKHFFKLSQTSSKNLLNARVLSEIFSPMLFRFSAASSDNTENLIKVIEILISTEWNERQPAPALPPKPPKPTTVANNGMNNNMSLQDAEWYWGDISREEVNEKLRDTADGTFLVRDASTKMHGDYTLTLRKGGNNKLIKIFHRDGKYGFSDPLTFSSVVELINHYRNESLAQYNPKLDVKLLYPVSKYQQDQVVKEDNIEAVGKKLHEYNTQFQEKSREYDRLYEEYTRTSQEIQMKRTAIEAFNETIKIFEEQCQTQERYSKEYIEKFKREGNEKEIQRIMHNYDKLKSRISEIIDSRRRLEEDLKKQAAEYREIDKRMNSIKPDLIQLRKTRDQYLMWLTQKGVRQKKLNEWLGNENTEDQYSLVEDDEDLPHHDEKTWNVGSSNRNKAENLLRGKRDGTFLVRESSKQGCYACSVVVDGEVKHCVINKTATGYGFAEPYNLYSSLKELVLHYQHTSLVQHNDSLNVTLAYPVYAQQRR
Data set [7] addresses PI3K-delta (Homo sapiens, UniProt O00329). Put plainly: PI3K-δ assay (ADP-Glo). The class given is biochemical.
For data set [8], the system named is Ehrlich ascites carcinoma (EAC) cells. Put plainly: In-vivo activity in Ehrlich solid tumor model. Also on record: species or system swiss mice. Conditions: 22 at 25 mg/kg i.p., 5-fluorouracil at 22 mg/kg i.p., day 1-9.
The target of data set [9] is PI3K-gamma (Homo sapiens, UniProt P48736). As to the kind of experiment: PI3K-γ assay (ADP-Glo). It is filed as biochemical.
Chain of PI3K-gamma (P48736 whole entry): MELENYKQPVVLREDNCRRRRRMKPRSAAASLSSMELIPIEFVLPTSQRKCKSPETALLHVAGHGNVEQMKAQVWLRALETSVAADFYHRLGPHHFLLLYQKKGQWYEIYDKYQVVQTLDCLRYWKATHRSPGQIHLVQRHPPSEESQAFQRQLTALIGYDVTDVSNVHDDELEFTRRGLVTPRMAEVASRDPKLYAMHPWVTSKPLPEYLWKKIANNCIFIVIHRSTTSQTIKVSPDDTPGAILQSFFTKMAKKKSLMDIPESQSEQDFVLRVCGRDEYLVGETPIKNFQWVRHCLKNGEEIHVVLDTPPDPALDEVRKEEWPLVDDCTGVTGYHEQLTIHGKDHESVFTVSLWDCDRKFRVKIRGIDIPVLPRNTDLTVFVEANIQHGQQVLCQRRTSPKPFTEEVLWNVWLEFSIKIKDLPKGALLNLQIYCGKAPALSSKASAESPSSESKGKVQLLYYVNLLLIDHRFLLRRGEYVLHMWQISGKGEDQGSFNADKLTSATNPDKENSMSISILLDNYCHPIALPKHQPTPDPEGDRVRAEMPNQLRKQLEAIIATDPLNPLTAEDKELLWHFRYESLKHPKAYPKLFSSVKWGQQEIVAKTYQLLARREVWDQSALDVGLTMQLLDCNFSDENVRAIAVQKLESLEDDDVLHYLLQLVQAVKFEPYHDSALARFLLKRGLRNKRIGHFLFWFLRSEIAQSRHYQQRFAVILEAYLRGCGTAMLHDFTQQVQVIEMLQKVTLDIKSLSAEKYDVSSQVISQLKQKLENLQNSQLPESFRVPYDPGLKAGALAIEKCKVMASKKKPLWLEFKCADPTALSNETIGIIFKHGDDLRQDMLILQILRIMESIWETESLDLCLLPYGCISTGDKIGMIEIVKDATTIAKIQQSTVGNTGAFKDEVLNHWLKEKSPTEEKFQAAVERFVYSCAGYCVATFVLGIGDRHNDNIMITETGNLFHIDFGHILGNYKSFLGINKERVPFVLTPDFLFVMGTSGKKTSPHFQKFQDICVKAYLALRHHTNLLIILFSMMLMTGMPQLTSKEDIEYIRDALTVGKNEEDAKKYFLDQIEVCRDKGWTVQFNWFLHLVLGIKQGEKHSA
For data set [10] the following is noted: via glucuronidation of phenolic hydroxyl group; cited from earlier work.
[11] abbreviates: water (aqueous, pH 7), pH = 7, read-out: Aqueous Solubility (μg/ml) at pH = 7.
[12] abbreviates: water, pH = 7, read-out: Aqueous Solubility (μg/ml) at pH = 7.
Where [13] appears, read: water, in H2O at pH = 7, read-out: Solubility μg/ml in H2O at pH = 7.

Chain of PI3K-delta (O00329 whole entry): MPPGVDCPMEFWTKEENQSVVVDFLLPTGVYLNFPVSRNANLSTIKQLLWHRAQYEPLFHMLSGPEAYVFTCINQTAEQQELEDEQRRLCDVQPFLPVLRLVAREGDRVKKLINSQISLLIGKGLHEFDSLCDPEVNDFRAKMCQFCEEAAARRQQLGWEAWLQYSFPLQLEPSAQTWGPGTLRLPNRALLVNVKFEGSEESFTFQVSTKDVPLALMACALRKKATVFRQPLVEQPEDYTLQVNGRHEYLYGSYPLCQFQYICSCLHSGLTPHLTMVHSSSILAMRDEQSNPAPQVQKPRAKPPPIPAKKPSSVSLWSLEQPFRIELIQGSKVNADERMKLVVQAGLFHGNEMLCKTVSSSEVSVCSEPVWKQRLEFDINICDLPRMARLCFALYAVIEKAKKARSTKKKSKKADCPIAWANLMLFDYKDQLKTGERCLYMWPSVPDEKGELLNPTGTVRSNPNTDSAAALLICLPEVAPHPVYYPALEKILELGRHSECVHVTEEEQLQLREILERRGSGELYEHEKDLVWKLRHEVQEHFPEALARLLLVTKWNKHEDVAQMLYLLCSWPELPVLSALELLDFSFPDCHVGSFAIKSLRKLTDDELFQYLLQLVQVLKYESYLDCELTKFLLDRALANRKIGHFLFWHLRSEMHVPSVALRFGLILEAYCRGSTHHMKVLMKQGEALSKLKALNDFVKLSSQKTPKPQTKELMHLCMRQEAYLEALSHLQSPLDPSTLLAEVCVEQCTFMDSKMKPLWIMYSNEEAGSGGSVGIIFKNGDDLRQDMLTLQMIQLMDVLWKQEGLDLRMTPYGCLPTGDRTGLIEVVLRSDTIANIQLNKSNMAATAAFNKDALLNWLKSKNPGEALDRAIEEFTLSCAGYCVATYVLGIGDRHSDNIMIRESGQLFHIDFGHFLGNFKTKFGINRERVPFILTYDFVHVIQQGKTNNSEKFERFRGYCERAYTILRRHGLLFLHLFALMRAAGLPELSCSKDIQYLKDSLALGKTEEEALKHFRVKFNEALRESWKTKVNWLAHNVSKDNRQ
Chain of PI3K-delta (P27986 whole entry partner): as the sequence (P27986 whole entry partner) above
Chain of PI3K-alpha (P42336 whole entry, canonical isoform): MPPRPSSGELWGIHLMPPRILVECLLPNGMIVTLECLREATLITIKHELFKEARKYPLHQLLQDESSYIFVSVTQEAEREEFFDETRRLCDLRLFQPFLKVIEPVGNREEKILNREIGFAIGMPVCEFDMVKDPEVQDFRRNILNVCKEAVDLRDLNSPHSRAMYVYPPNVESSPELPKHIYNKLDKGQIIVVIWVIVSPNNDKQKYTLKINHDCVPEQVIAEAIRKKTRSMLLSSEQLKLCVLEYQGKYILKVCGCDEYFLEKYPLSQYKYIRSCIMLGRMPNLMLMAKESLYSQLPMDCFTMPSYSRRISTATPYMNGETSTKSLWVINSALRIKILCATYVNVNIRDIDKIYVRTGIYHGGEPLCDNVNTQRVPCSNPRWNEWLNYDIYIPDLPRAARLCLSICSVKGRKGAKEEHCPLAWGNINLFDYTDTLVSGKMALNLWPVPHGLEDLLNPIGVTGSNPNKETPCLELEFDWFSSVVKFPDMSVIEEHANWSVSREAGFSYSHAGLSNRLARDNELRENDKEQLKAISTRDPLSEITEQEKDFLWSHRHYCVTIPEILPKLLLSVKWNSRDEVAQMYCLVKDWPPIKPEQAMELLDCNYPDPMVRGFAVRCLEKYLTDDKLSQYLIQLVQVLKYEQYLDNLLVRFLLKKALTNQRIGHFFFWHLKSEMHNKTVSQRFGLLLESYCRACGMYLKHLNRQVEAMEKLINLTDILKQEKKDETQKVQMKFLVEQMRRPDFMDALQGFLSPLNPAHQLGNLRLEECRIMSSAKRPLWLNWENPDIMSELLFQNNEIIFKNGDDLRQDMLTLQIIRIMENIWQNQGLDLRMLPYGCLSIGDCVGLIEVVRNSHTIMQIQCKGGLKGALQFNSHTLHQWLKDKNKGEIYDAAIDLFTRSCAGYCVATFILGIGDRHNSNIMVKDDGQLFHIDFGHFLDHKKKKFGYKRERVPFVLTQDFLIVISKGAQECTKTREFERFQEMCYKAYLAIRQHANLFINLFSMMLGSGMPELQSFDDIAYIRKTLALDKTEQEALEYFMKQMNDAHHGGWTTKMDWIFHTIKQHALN
Chain of PI3K-alpha (P27986 whole entry partner, canonical isoform): as the sequence (P27986 whole entry partner) above

As usually defined, the inhibition is the change of the read-out against control, counted positive when it falls. Turning to `CC(C)(C)OC(=O)NC1CCN(c2nc(N3CCOCC3)c3oc4ncccc4c3n2)CC1` [Compound 6, tert-butyl (1-(4-morpholinopyrido [3′,2′:4,5]furo[3,2-d]pyrimidin-2-yl)piperidin-4-yl)carbamate], the solubility in data set [1] (setting [11]) was found to be 10 µg/mL (≈ 22 µM). In addition, the inhibition at 0.5 µM in data set [2] was 67.3%.

What is called IC50 is the concentration at which inhibition is half-maximal. Consider `CCOC(=O)c1ccc(NC(=O)NC2CCN(c3nc(N4CCOCC4)c4oc5ncccc5c4n3)CC2)cc1` [Compound 8, ethyl 4-(3-(1-(4-morpholinopyrido[3′,2′:4,5]furo[3,2-d]pyrimidin-2-yl)piperidin-4-yl)ureido)benzoate], for which the solubility in data set [1] (setting [11]) came to 10 µg/mL (≈ 18.3 µM). The concentration for half-maximal inhibition (IC50) in data set [3] was 8 µM; in data set [4] it was 8 µM; in data set [5] it was 8 µM; in data set [2] (read-out: IC50 for PI3K (μM) PI3K-α), 0.008 µM. Besides, the “% PI3Kα inhibition at 500 nM” value in [2] turned out to be 85%. Besides, the inhibition at 0.5 µM in [2] was over 70%.

For orientation: pIC50 means the negative decadic logarithm of the IC50, by convention in mol/L. With `CN1CCN(C(=O)c2ccc(NC(=O)NC3CCN(c4nc(N5CCOCC5)c5oc6ncccc6c5n4)CC3)cc2)CC1` [Compound 10, 1-(4-(4-methylpiperazine-1-carbonyl)phenyl)-3-(1-(4-morpholinopyrido[3′,2′:4,5]furo[3,2-d]pyrimidin-2-yl)piperidin-4-yl)urea], the “Aqueous Solubility (μg/ml) at pH = 7” value in data set [1] (pH = 7) is listed as 400 μg/ml. Moreover, in data set [1] (setting [12]), the solubility was over 200 µg/mL. In addition, in data set [3], the IC50 was 40 µM. The concentration for half-maximal inhibition (IC50) in data set [4] turned out to be 8 µM. Besides, inhibition in data set [5] was half-maximal at 9 µM (IC50). In data set [2], the “% PI3Kα inhibition at 500 nM” value amounted to 76.8%, the inhibition at 0.5 µM was over 70% and the pIC50 is 7.10.

In the case of `CC(C)(C)OC(=O)NC1CCN(c2nc(N3CCOCC3)c3sccc3n2)CC1` [Compound 16, tert-butyl (1-(4-morpholino thieno[3,2-d]pyrimidin-2-yl)piperidin-4-yl)carbamate], the inhibition at 0.5 µM in data set [2] is under 0%.

Turning to `CC(C)(C)OC(=O)NC1CCN(c2nc(N3CCOCC3)c3sc(C(C)(C)O)cc3n2)CC1` [Compound 17, tert-butyl (1-(6-(2-hydroxypropan-2-yl)-4-morpholinothieno[3,2-d]pyrimidin-2-yl)piperidin-4-yl)carbamate], the solubility in data set [1] (setting [11]) amounted to 200 µg/mL (≈ 419 µM). In data set [1] (setting [12]), the solubility is over 200 µg/mL. Besides, in data set [2], the “% PI3Kα inhibition at 500 nM” value amounted to 81% and the inhibition at 0.5 µM is over 70%.

As to `CCOC(=O)c1ccc(NC(=O)NC2CCN(c3nc(N4CCOCC4)c4sccc4n3)CC2)cc1` [Compound 21, ethyl 4-(3-(1-(4-morpholinothieno[3,2-d]pyrimidin-2-yl)piperidin-4-yl)ureido)benzoate], the solubility in data set [1] (setting [11]) was found to be 120 µg/mL (≈ 235 µM). Besides, in data set [2], the inhibition at 0.5 µM was found to be 59%.

Consider `CCc1ccc(NC(=O)NC2CCN(c3nc(N4CCOCC4)c4sccc4n3)CC2)cc1` [Compound 22, 1-(4-ethylphenyl)-3-(1-(4-morpholinothieno[3,2-d]pyrimidin-2-yl)piperidin-4-yl)urea], for which the solubility in data set [1] (setting [13]) was found to be 800 µg/mL (≈ 1710 µM). Also, the IC50 in data set [6] was over 20 µM; in [7] it was over 20 µM; in data set [3], 4 µM; in data set [4], 5 µM; in data set [5] it was 7 µM; in data set [9], over 20 µM. Moreover, the “Fold-selectivity for PI3K-α with respect to other isoforms PI3K-β” value in [6] (PI3K-α versus PI3K-β) is recorded as over 500 fold. In addition, the “% inhibition of PI3K-β” value in [6] (up to 20 μM) was 0%. Also, in [7], the “Fold-selectivity for PI3K-α with respect to other isoforms PI3K-δ” value is on record as over 500 fold. Also, the “% inhibition of PI3K-δ” value in data set [7] (up to 20 μM) is 0%. The “Day 13 % Tumor Growth Inhibition” value in data set [8] (day 13, versus saline control) is 32.7% and 32.73%. The “Day 13 Avg. tumor weights” value in data set [8] (day 13) amounted to 1128.4 mg. In addition, the inhibition at 0.5 µM in data set [2] worked out at 74%. In [2], the pIC50 is 7.40. In addition, in [9] (PI3K-α versus PI3K-γ), the “Fold-selectivity for PI3K-α with respect to other isoforms PI3K-γ” value is over 500 fold. In addition, the “% inhibition of PI3K-γ” value in [9] (up to 20 μM) amounted to 0%.

In the case of `Cc1ccccc1NC(=O)NC1CCN(c2nc(N3CCOCC3)c3sccc3n2)CC1` [Compound 23, 1-(1-(4-morpholinothieno[3,2-d]pyrimidin-2-yl)piperidin-4-yl)-3-(o-tolyl)urea], the solubility in data set [1] (setting [11]) was 20 µg/mL (≈ 44.2 µM). Further, the inhibition at 0.5 µM in [2] is 68%.

For the compound `O=C(Nc1ccc(C(F)(F)F)cc1)NC1CCN(c2nc(N3CCOCC3)c3sccc3n2)CC1` [Compound 24, 1-(1-(4-morpholinothieno[3,2-d]pyrimidin-2-yl)piperidin-4-yl)-3-(4-(trifluoromethyl)phenyl)urea], the figures for the IC50 in [3], in data set [4] and in data set [5] were 8 µM, 9 µM and 13 µM, respectively. In [2], the “% PI3Kα inhibition at 500 nM” value is reported as 70%. In addition, in data set [2], the inhibition at 0.5 µM is over 70%.

As for `O=C(Nc1ccccc1F)NC1CCN(c2nc(N3CCOCC3)c3sccc3n2)CC1` [Compound 25, 1-(2-fluorophenyl)-3-(1-(4-morpholinothieno[3,2-d]pyrimidin-2-yl)piperidin-4-yl)urea], the solubility in data set [1] (setting [11]) is 200 µg/mL (≈ 438 µM). In addition, in data set [1] (setting [12]), the solubility was over 200 µg/mL. Moreover, in data set [2], the “% PI3Kα inhibition at 500 nM” value worked out at 76% and the inhibition at 0.5 µM is over 70%.

Take `CCOC(=O)c1ccc(NC(=O)NC2CCN(c3nc(N4CCOCC4)c4sc(C(C)(C)O)cc4n3)CC2)cc1` [Compound 26, ethyl 4-(3-(1-(6-(2-hydroxypropan-2-yl)-4-morpholinothieno[3,2-d]pyrimidin-2-yl)piperidin-4-yl)ureido)benzoate]: the inhibition at 0.5 µM in [2] stood at 40%.

In the case of `COc1ccc(S(=O)(=O)NC2CCN(c3nc(N4CCOCC4)c4sccc4n3)CC2)cc1` [Compound 27, 4-methoxy-N-(1-(4-morpholinothieno[3,2-d]pyrimidin-2-yl)piperidin-4-yl)benzenesulfonamide], in data set [2], the inhibition at 0.5 µM came to 33%.

In the case of `CC(C)(C)c1ccc(S(=O)(=O)NC2CCN(c3nc(N4CCOCC4)c4sccc4n3)CC2)cc1` [Compound 28, 4-(tert-butyl)-N-(1-(4-morpholinothieno[3,2-d]pyrimidin-2-yl)piperidin-4-yl)benzenesulfonamide], the solubility in data set [1] (setting [11]) came out at 20 µg/mL (≈ 38.8 µM). In addition, the inhibition at 0.5 µM in data set [2] stood at 56%.

On to `O=S(=O)(NC1CCN(c2nc(N3CCOCC3)c3sccc3n2)CC1)c1ccc2ccccc2c1` [Compound 30, N-(1-(4-morpholinothieno [3,2-d]pyrimidin-2-yl)piperidin-4-yl)naphthalene-2-sulfonamide], for which, in data set [1] (setting [11]), the solubility was found to be 5 µg/mL (≈ 9.81 µM). For the same compound, the inhibition at 0.5 µM in data set [2] stood at 54.8%.

Take `CS(=O)(=O)N1CCN(Cc2cc3nc(-c4cccc5[nH]ncc45)nc(N4CCOCC4)c3s2)CC1` [GDC-0941, reference compound]: the solubility in data set [1] (setting [13]) is 16 µg/mL (≈ 31.1 µM).

As to `Oc1cccc(-c2nc(N3CCOCC3)c3oc4ncccc4c3n2)c1` [PI-103, reference compound], the solubility in data set [1] (setting [13]) stood at 5 µg/mL (≈ 14.4 µM). The metabolism result in data set [10] is recorded as “rapid metabolism”.
